Results from patent publication US20230227427A1, “IL-17A MODULATORS” (SANOFI, priority 2010, published 2023).

Target: T1, human recombinant IL-17A (Homo sapiens, UniProt Q16552)
T1 construct: purchased R&D Systems 7955-IL/CF
T1 sequence (Q16552 24-155): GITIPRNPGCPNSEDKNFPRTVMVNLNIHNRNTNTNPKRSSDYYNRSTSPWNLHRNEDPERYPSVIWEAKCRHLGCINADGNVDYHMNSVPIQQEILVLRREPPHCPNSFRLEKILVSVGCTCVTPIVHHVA
Experiment: IL-17A AlphaLISA assay (block binding of IL-17A to its receptor IL-17RA)
Details: compounds pre-incubated with the IL-17A for 30 min (indicated by * in Table A); for IC50: read-out: AlphaLISA pIC50 (converted)
In short: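 PBS with 0.05% Tween-20 and 0.1% BSA. IL-17A stock 7.5 nM, IL-17RA/Fc stock 5 nM; compound–cytokine pre-incubation 24 h at RT, or 30 min where marked, then 90 min with receptor. pIC50 from 4-parameter logistic AlphaLISA signal, normalised to DMSO and 6 μM reference inhibitor.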

Compound | IC50 [nM] | AlphaLISA pIC50
Cc1cnn(C)c1-c1ncc(NC(=O)[C@@H](NC(=O)c2ccnn2C)[C@H]2CC[C@H](C)CC2)cc1F [Example 179, N—((S)-2-((6-(1,4-dimethyl-1H-pyrazol-5-yl)-5-fluoropyridin-3-yl)amino)-1-((1r,4S)-4-methylcyclohexyl)-2-oxoethyl)-1-methyl-1H-pyrazole-5-carboxamide] | 501 | 
CCc1nocc1C(=O)N[C@H](C(=O)Nc1cnc(-c2c(C)cnn2C)c(F)c1)[C@H]1CC[C@H](C)CC1 [Example 180, N—((S)-2-((6-(1,4-dimethyl-1H-pyrazol-5-yl)-5-fluoropyridin-3-yl)amino)-1-((1r,4S)-4-methylcyclohexyl)-2-oxoethyl)-3-ethylisoxazole-4-carboxamide] | 158 | 
CCn1nccc1C(=O)NC(C(=O)Nc1ccc(-c2c(C)cnn2C)cn1)[C@H]1CC[C@H](C(F)(F)F)CC1 (some centres unmarked) [Example 186, N-(2-((5-(1,4-dimethyl-1H-pyrazol-5-yl)pyridin-2-yl)amino)-2-oxo-1-((1r,4r)-4-(trifluoromethyl)cyclohexyl)ethyl)-1-ethyl-1H-pyrazole-5-carboxamide] | 398 | 
CCc1nocc1C(=O)NC(C(=O)Nc1ccc(-c2c(C)cnn2C)cn1)[C@H]1CC[C@H](C(F)(F)F)CC1 (some centres unmarked) [Example 187, N-(2-((5-(1,4-dimethyl-1H-pyrazol-5-yl)pyridin-2-yl)amino)-2-oxo-1-((1r,4r)-4-(trifluoromethyl)cyclohexyl)ethyl)-3-ethylisoxazole-4-carboxamide] | 398 | 
CCc1nocc1C(=O)N[C@H](C(=O)Nc1ccc(-c2c(C)nnn2C)cn1)[C@H]1CC[C@H](C)CC1 [Example 188, N—((S)-2-((5-(1,4-dimethyl-1H-1,2,3-triazol-5-yl)pyridin-2-yl)amino)-1-((1r,4S)-4-methylcyclohexyl)-2-oxoethyl)-3-ethylisoxazole-4-carboxamide] | 100 | 
CCn1nccc1C(=O)N[C@H](C(=O)Nc1cnc(-c2c(C)cnn2C)c(F)c1)[C@H]1CC[C@H](C)CC1 [Example 189, N—((S)-2-((6-(1,4-dimethyl-1H-pyrazol-5-yl)-5-fluoropyridin-3-yl)amino)-1-((1r,4S)-4-methylcyclohexyl)-2-oxoethyl)-1-ethyl-1H-pyrazole-5-carboxamide] |  | 6.8*
Cc1cnn(C)c1-c1ccc(NC(=O)[C@@H](NC(=O)c2conc2C(C)C)[C@H]2CC[C@H](C)CC2)nc1 [Example 191, N—((S)-2-((5-(1,4-dimethyl-1H-pyrazol-5-yl)pyridin-2-yl)amino)-1-((1r,4S)-4-methylcyclohexyl)-2-oxoethyl)-3-isopropylisoxazole-4-carboxamide] | 39.8 | 
Cc1cnn(C)c1-c1ccc(NC(=O)[C@@H](NC(=O)c2conc2C(C)(C)C)[C@H]2CC[C@H](C)CC2)nc1 [Example 192, 3-(tert-butyl)-N—((S)-2-((5-(1,4-dimethyl-1H-pyrazol-5-yl)pyridin-2-yl)amino)-1-((1r,4S)-4-methylcyclohexyl)-2-oxoethyl)isoxazole-4-carboxamide] | 200 | 
Cc1cnn(C)c1-c1ccc(NC(=O)[C@@H](NC(=O)c2conc2C(F)(F)F)[C@H]2CC[C@H](C)CC2)nc1 [Example 194, N—((S)-2-((5-(1,4-dimethyl-1H-pyrazol-5-yl)pyridin-2-yl)amino)-1-((1r,4S)-4-methylcyclohexyl)-2-oxoethyl)-3-(trifluoromethyl)isoxazole-4-carboxamide] | 158 | 
Cc1nsc(C)c1-c1ccc(NC(=O)[C@@H](NC(=O)c2ccnn2C)[C@H]2CC[C@H](C)CC2)nc1 [Example 196, N—((S)-2-((5-(3,5-dimethylisothiazol-4-yl)pyridin-2-yl)amino)-1-((1r,4S)-4-methylcyclohexyl)-2-oxoethyl)-1-methyl-1H-pyrazole-5-carboxamide] | 251 | 
CCn1nccc1C(=O)N[C@H](C(=O)Nc1ccc(-c2c(Cl)cnn2C)cn1)[C@H]1CC[C@H](C)CC1 [Example 199, N—((S)-2-((5-(4-chloro-1-methyl-1H-pyrazol-5-yl)pyridin-2-yl)amino)-1-((1r,4S)-4-methylcyclohexyl)-2-oxoethyl)-1-ethyl-1H-pyrazole-5-carboxamide] | 100 | 
Cn1nncc1C(=O)N[C@H](C(=O)Nc1ccc(-c2c(Cl)cnn2C)cn1)[C@H]1CC[C@H](C)CC1 [Example 200, N—((S)-2-((5-(4-chloro-1-methyl-1H-pyrazol-5-yl)pyridin-2-yl)amino)-1-((1r,4S)-4-methylcyclohexyl)-2-oxoethyl)-1-methyl-1H-1,2,3-triazole-5-carboxamide] | 398 | 
CCc1nocc1C(=O)N[C@H](C(=O)Nc1ccc(-c2c(Cl)cnn2C)cn1)[C@H]1CC[C@H](C)CC1 [Example 201, N—((S)-2-((5-(4-chloro-1-methyl-1H-pyrazol-5-yl)pyridin-2-yl)amino)-1-((1r,4S)-4-methylcyclohexyl)-2-oxoethyl)-3-ethylisoxazole-4-carboxamide] | 79.4 | 
CCc1nocc1C(=O)N[C@H](C(=O)Nc1ccc(-c2c(CO)cnn2C)cn1)C1CCCCCC1 [Example 202, (S)—N-(1-cycloheptyl-2-((5-(4-(hydroxymethyl)-1-methyl-1H-pyrazol-5-yl)pyridin-2-yl)amino)-2-oxoethyl)-3-ethylisoxazole-4-carboxamide] | 158 | 
CCc1nocc1C(=O)N[C@H](C(=O)Nc1ccc(-c2c(C)noc2C)nc1)[C@H]1CC[C@H](C)CC1 [Example 203, N—((S)-2-((6-(3,5-dimethylisoxazol-4-yl)pyridin-3-yl)amino)-1-((1r,4S)-4-methylcyclohexyl)-2-oxoethyl)-3-ethylisoxazole-4-carboxamide] | 79.4 | 

The next lines start with the values.

IC50 [nM] | AlphaLISA pIC50 | Compound
39.8 |  | CCn1nccc1C(=O)N[C@H](C(=O)Nc1ccc(-c2c(Cl)cnn2C)cn1)C1CCCCCC1 [Example 176, (S)—N-(2-((5-(4-chloro-1-methyl-1H-pyrazol-5-yl)pyridin-2-yl)amino)-1-cycloheptyl-2-oxoethyl)-1-ethyl-1H-pyrazole-5-carboxamide]
200 |  | Cc1cnn(C)c1-c1ccc(NC(=O)[C@@H](NC(=O)c2ccnn2C)C2CCCCC2)nc1 [Example 177, (S)—N-(1-cyclohexyl-2-((5-(1,4-dimethyl-1H-pyrazol-5-yl)pyridin-2-yl)amino)-2-oxoethyl)-1-methyl-1H-pyrazole-5-carboxamide]
79.4 |  | CCc1nocc1C(=O)N[C@H](C(=O)Nc1ccc(-c2c(C)cnn2C)cn1)C1CCCCC1 [Example 178, (S)—N-(1-cyclohexyl-2-((5-(1,4-dimethyl-1H-pyrazol-5-yl)pyridin-2-yl)amino)-2-oxoethyl)-3-ethylisoxazole-4-carboxamide]
158 |  | Cc1cnn(C)c1-c1ccc(NC(=O)[C@@H](NC(=O)c2conc2C)C2CCCCC2)nc1 [Example 181, (S)—N-(1-cyclohexyl-2-((5-(1,4-dimethyl-1H-pyrazol-5-yl)pyridin-2-yl)amino)-2-oxoethyl)-3-methylisoxazole-4-carboxamide]
31.6 |  | Cn1nccc1C(=O)N[C@H](C(=O)Nc1ccc(-c2c(CO)cnn2C)cn1)C1CCCCCC1 [Example 182, (S)—N-(1-cycloheptyl-2-((5-(4-(hydroxymethyl)-1-methyl-1H-pyrazol-5-yl)pyridin-2-yl)amino)-2-oxoethyl)-1-methyl-1H-pyrazole-5-carboxamide]
251 |  | Cc1cnn(C)c1-c1ccc(NC(=O)C(NC(=O)c2ccnn2C)C2CC3CCC2C3)nc1 (centres unmarked) [Example 184, N-(1-(bicyclo[2.2.1]heptan-2-yl)-2-((5-(1,4-dimethyl-1H-pyrazol-5-yl)pyridin-2-yl)amino)-2-oxoethyl)-1-methyl-1H-pyrazole-5-carboxamide]
631 |  | Cc1cnn(C)c1-c1ccc(NC(=O)C(NC(=O)c2ccnn2C)[C@H]2CC[C@H](C(F)(F)F)CC2)nc1 (some centres unmarked) [Example 185, N-(2-((5-(1,4-dimethyl-1H-pyrazol-5-yl)pyridin-2-yl)amino)-2-oxo-1-((1r,4r)-4-(trifluoromethyl)cyclohexyl)ethyl)-1-methyl-1H-pyrazole-5-carboxamide]
794 |  | Cc1nnn(CC(=O)N(C)C)c1-c1ccc(NC(=O)[C@@H](NC(=O)c2ccnn2C)C2CCCCCC2)nc1 [Example 190, (S)—N-(1-cycloheptyl-2-((5-(1-(2-(dimethylamino)-2-oxoethyl)-4-methyl-1H-1,2,3-triazol-5-yl)pyridin-2-yl)amino)-2-oxoethyl)-1-methyl-1H-pyrazole-5-carboxamide]
251 |  | Cn1nccc1C(=O)N[C@H](C(=O)Nc1ccc(-c2c(C#N)cnn2C)cn1)[C@H]1CC[C@H](C)CC1 [Example 193, N—((S)-2-((5-(4-cyano-1-methyl-1H-pyrazol-5-yl)pyridin-2-yl)amino)-1-((1r,4S)-4-methylcyclohexyl)-2-oxoethyl)-1-methyl-1H-pyrazole-5-carboxamide]
501 |  | Cc1nn(C)c(-c2ccc(NC(=O)[C@@H](NC(=O)c3ccnn3C)C3CCCCCC3)nc2)c1C [Example 195, (S)—N-(1-cycloheptyl-2-oxo-2-((5-(1,3,4-trimethyl-1H-pyrazol-5-yl)pyridin-2-yl)amino)ethyl)-1-methyl-1H-pyrazole-5-carboxamide]
200 |  | CCn1nccc1C(=O)N[C@H](C(=O)Nc1ccc(-c2c(CO)cnn2C)cn1)C1CCCCCC1 [Example 198, (S)—N-(1-cycloheptyl-2-((5-(4-(hydroxymethyl)-1-methyl-1H-pyrazol-5-yl)pyridin-2-yl)amino)-2-oxoethyl)-1-ethyl-1H-pyrazole-5-carboxamide]
